According to US9879006B2, “Azaindole acetic acid derivatives and their use as prostaglandin D2 receptor modulators” (IDORSIA PHARMACEUTICALS LTD, priority 2014, dated 2018):

What was measured:
[1] = test system: primary cultured rat hepatocytes; assay: In vitro cytotoxicity in primary cultured rat hepatocytes; assay type: cell-based; details: 24 h treatment, cell morphology and LDH leakage, highest test concentration 300 μM; for LCC (lowest cytotoxic concentration): 300s = only slight cytotoxicity at 300 μM
Text: In Vitro Cytotoxicity in Primary Cultured Rat Hepatocytes
Adult male Wistar rats were narcotized with sodium pentobarbital and hepatocytes were isolated according to a standard procedure, i.e. by in situ perfusion of the liver with a collagenase solution. The viability of the purified hepatocytes, checked by the trypan blue dye exclusion method was greater than 85%. The isolated hepatocytes were resuspended in standard Williams Medium E, without phenol red, supplemented (WME supp.) with transferrin (100 μg/ml), triiodothyronine (10 μg/ml), gentamicin (50 μg/ml), hydrocortison hemisuccinate (13.36 μg/ml), glucagon (5 μg/ml), HEPES (10 mM), inosin (10 μg/ml), insulin (10 μg/ml), streptomycin (100 μg/ml) and penicillin (100 U/ml) and 10% fetal bovine serum (FBS). The cells were plated in collagen-coated 24-well plates at an initial density of 2×10^5 cells/well. After 4 h for attachment to the culture-plates, the medium was aspirated and replaced by fresh WME supp. without FBS containing the test compounds and incubated for 24 h at 37° C. in a […] and 5% CO2 atmosphere. For each experiment, i.e., with each batch of hepatocytes, treatments with the test compounds were done in quadriplicate. Quadriplicate controls (treatment with the vehicle only) were also present on each culture plate.
Stock solutions of the test compounds were prepared in DMSO a few hours before treatment start. Appropriate dilutions of these stock solutions were added to the culture media just prior to the treatment in order to give final concentrations of 0, 3, 10, 30, 100 and 300 μM. The final concentration of the vehicle DMSO was 1% (v/v).
The morphology of the hepatocyte monolayers was monitored by light microscopy after 24 hours of exposure to the test compounds. Treatment related effects are described according to the following grading: • 0 No morphological alterations observed upon treatment when compared to the control cultures • 1-3 Treatment resulting in any morphological changes, e.g. intracellular granulation, vacuolization or cell death. Depending on the severity, these changes were regarded as slight (1), moderate (2) or strong (3). • K Treatment resulting in 100% dead cells and/or the complete detachment of the monolayer yielding a clear cell-free dish.
After 24 h treatment of the hepatocyte cultures, aliquots of culture medium were carefully collected and used for the analysis of lactate dehydrogenase (LDH) activity by spectrophotometry using the LDH cytotoxicity detection kit from Clontech (cat No. 630117, Mountain View, Calif., USA). For each experiment, additional cultures were used for the determination of total intracellular LDH activity at treatment start. For this purpose, 4 wells of cell culture per experiment were washed with cold saline before treatment start, sonicated in fresh medium and the homogenate was analyzed for total LDH activity. Enzyme activities in the culture media were assessed and expressed as percentage of the total activity present in the cultured hepatocytes at the beginning of the treatments.
The lowest cytotoxic concentration (LCC) and the no effect concentration (NoEC) are given for each compound, based on cell morphology and LDH leakage after 24 h treatment. LCC is defined as the lowest concentration of the test compound leading to a clear effect on the cultured rat hepatocytes (morphology grading≧2 or ≧2-fold increase in LDH leakage). A LCC value of >300 μM indicates the absence of effect on both endpoints at the highest test concentration of 300 μM. […] NoEC is defined as the highest test concentration of the compound which was without an effect on the cultured rat hepatocytes (morphology and LDH leakage).

hCRTH2 receptor [2] = target: T1, hCRTH2 receptor (Homo sapiens, UniProt Q9Y5Y4); assay: Radioligand displacement assay in presence of human serum albumin (HSA); details: displacement of 3H-PGD2, Binding-Buffer with 0.5% human serum albumin instead of 0.1% BSA
T1 construct: expressed in transfected cells; host or cells: HEK293 (recombinant HEK293-hCRTH2), membrane fragments
T1 sequence (Q9Y5Y4 1-395): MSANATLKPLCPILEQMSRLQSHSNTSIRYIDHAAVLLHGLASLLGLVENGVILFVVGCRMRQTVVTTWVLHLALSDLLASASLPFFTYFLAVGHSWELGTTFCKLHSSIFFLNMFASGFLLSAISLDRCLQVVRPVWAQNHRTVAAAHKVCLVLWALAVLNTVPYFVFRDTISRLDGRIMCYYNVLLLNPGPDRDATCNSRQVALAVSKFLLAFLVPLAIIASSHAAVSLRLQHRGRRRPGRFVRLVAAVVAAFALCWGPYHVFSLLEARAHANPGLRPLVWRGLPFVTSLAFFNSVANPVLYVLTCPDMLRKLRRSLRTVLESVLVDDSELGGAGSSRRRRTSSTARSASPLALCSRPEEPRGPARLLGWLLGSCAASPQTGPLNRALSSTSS
Experimental: (§1) First, recombinant HEK293-hCRTH2 cells were detached from culture plates into 5 ml buffer A/plate (Buffer A: 5 mM Tris, 1 mM MgCl2-6H2O pH=7.4) using a rubber policeman. Cells were then transferred into centrifugation tubes and centrifuged for 5 min at 400 g. The cell pellet was resuspended in the same buffer and tubes were frozen at 80° C. Cells were thawed and membrane fragments were generated by homogenization using a polytron homogenizer (30 seconds). The membrane fragments were then centrifuged at 3000 g for 20 minutes and resuspended in buffer C (Buffer C: 75 mM Tris, 25 mM MgCl2, 250 mM Saccharose pH 7.4). Aliquots of membrane fragments were stored at −20° C.
(§2) Binding assay was performed in a final assay volume of 250 μl. First, 25 μl of test compound, previously diluted in Binding-Buffer (Binding-Buffer: 50 mM Tris-Base, 100 mM NaCl, 1 mM EDTA, 0.1% BSA (protease free), 0.01% NaN3, 10 mM MnCl2 pH 7.0) was placed into each well. After addition of 75 μl Binding-Buffer, 50 μl of the radioligand ^3H-PGD2 (at 2.5 nM (220.000 dpm/well) from ANAWA ART0662) was added to each well. Binding assay was started by addition of 100 μl CRTH2 membrane fragments, reaching a final concentration of 20 μg/well. For non-specific binding, PGD2 was added to the reaction mixture to […] final concentration. This assay mix was incubated for 90 minutes at room temperature and then filtered through a GF/C filter 96-well plate which was pre-soaked for 3 hours in 0.5% polyethyleneimine (PEI). The filter-wells were washed three times with ice cold Binding-Buffer. Then, 40 μl of Microscint-40 (Packard) was added to each well and the retained radioactivity quantified in a Topcount (Packard).
Radioligand Displacement Assay-Human Serum Albumin (HSA):
Radioligand displacement assay in presence of human serum albumin (HSA) was performed as described above, with following modifications. Binding-Buffer-HSA: Binding-buffer+0.5% Sigma Albumin from Human serum A1887 (instead of 0.1% BSA). A volume of 25 μl test compound, previously diluted in Binding-Buffer-HSA was placed into each well. After addition of 75 μl Binding-Buffer-HSA, 50 μl of ^3H-PGD2 (at 2.5 nM (220.000 dpm/well) from ANAWA ART0662) was added to each well. Remaining protocol was identical as described above.

[3] = test system: eosinophils (PGD2-induced shape change); assay: Eosinophil shape change assay with human plasma; assay type: cell-based; details: human polymorphonuclear cells, 50% human plasma, activated with PGD2 100 nM, flow cytometry forward-scatter
Experimental: Eosinophil Shape Change Assay with Human Plasma
After obtaining informed consent, blood samples were drawn by venipuncture according to the protocol approved by the ethics committee of Basel, Switzerland. Polymorphonuclear leukocytes (containing eosinophils, basophils and neutrophils) were isolated using the Polymorphprep™ method (Axis-Shield). In brief, anticoagulated whole blood was layered onto a Polymorphprep gradient (density 1.113 g/ml) and centrifuged at 500 g for 30 min. The polymorphonuclear cell fraction was harvested and depleted for erythrocytes by hypotonic saline lysis.
The polymorphonuclear cells were resuspended in assay buffer (1×PBS with Ca^2+/Mg^2+ supplemented with 0.1% BSA, 10 mM HEPES, and 10 mM Glucose, pH 7.4) at 5×10^6 cells/ml and stained with anti-CD49d-APC ((APC=Allophycocyanin) for 1 hour at RT. Test compounds, at various concentrations, were preincubated 10 min in human plasma (anticoagulated with a thrombin inhibitor). Then, human plasma was added to the polymorphonuclear cells to 50% of final assay volume with polymorphonuclear cells at 4×10^6 cells/ml. After incubation for 10 minutes at 37° C., the polymorphonuclear cells were activated for 5 min at 37° C. by addition of PGD2 at 100 nM final concentration. Activation was stopped by addition of 0.5 ml paraformaldehyde (1%).
Immediately after fixation with paraformaldehyde, the samples were analyzed by FACSCanto flow cytometer (BD Biosciences) and target cells were identified by their forward-scatter (FSC) and side-scatter (SSC) characteristics. Eosinophils were identified by the anti-CD49d-APC signal and their characteristic side-scatter (SSC) profile. Shape change responses, indicative of eosinophil activation, were quantified as the percent of cells with an increased forward-scatter.

hCRTH2 receptor [4] = target: T1, hCRTH2 receptor; assay: hCRTH2 receptor membranes radioligand displacement assay; details: displacement of 3H-PGD2 (2.5 nM), HEK293-hCRTH2 membrane fragments, Binding-Buffer with 0.1% BSA
Experimental: Preparation of hCRTH2 Receptor Membranes and Radioligand Displacement Assay:
as §1, §2

In the case of `CN(c1ncc(Cl)cn1)[C@H]1CCc2c(c3cc(F)ccc3n2CC(=O)O)C1`, the “NoEC (no effect concentration)” value [1] is reported as 30 µM and the “LCC (lowest cytotoxic concentration)” value [1] is reported as 300 µM.
In the case of `Cc1ccc2c(n1)c1c(n2CC(=O)O)CCC(N(C)c2ncc(Cl)cn2)C1` (stereo not drawn) [Example 1, 2-(8-((5-chloropyrimidin-2-yl)(methyl)amino)-2-methyl-6,7,8,9-tetrahydro-5H-pyrido[3,2-b]indol-5-yl)acetic acid], the IC50 (hCRTH2 receptor [2]) is reported as 3.9 nM, the IC50 [3] is reported as 71 nM and the IC50 (hCRTH2 receptor [4]) is reported as 1.9 nM.
With `CN(c1ncc(Cl)cn1)C1CCc2c(c3nc(F)ccc3n2CC(=O)O)C1` (stereo not drawn) [Example 2, 2-(8-((5-chloropyrimidin-2-yl)(methyl)amino)-2-fluoro-6,7,8,9-tetrahydro-5H-pyrido[3,2-b]indol-5-yl)acetic acid] the IC50 (hCRTH2 receptor [2]) was 2.3 nM, the IC50 [3] was 4.2 nM and the IC50 (hCRTH2 receptor [4]) was 3.1 nM.
`COc1ccc2c(n1)c1c(n2CC(=O)O)CCC(N(C)c2ncc(Cl)cn2)C1` (stereo not drawn) [Example 3, 2-(8-((5-chloropyrimidin-2-yl)(methyl)amino)-2-methoxy-6,7,8,9-tetrahydro-5H-pyrido[3,2-b]indol-5-yl)acetic acid] gave an IC50 (hCRTH2 receptor [2]) of 13 nM, an IC50 [3] of 148 nM and an IC50 (hCRTH2 receptor [4]) of 13 nM.
`CN(c1ncc(Cl)cn1)C1CCc2c(c3nc(C(F)(F)F)ccc3n2CC(=O)O)C1` (stereo not drawn) [Example 4, 2-(8-((5-chloropyrimidin-2-yl)(methyl)amino)-2-(trifluoromethyl)-6,7,8,9-tetrahydro-5H-pyrido[3,2-b]indol-5-yl)acetic acid] was tested, and the IC50 (hCRTH2 receptor [2]) was 16 nM, the IC50 [3] was 417 nM and the IC50 (hCRTH2 receptor [4]) was 10 nM.
For `O=C(O)Cn1c2c(c3ncccc31)CC(Nc1ncc(Cl)cn1)CC2` (stereo not drawn) [Example 5, 2-(8-((5-chloropyrimidin-2-yl)-amino)-6,7,8,9-tetrahydro-5H-pyrido[3,2-b]indol-5-yl)acetic acid], the IC50 (hCRTH2 receptor [2]) was 22 nM, the IC50 [3] was 88 nM and the IC50 (hCRTH2 receptor [4]) was 19 nM.
For `CN(c1ncc(Cl)cn1)[C@H]1CCc2c(c3ncccc3n2CC(=O)O)C1` [Example 6, (S)-2-(8-((5-chloropyrimidin-2-yl)(methyl)amino)-6,7,8,9-tetrahydro-5H-pyrido[3,2-b]indol-5-yl)acetic acid], the IC50 (hCRTH2 receptor [2]) was 2.1 nM, the IC50 [3] was 5.8 nM and the IC50 (hCRTH2 receptor [4]) was 2.3 nM.
Compound `CN(c1ncc(Cl)cn1)[C@H]1CCc2c(c3nc(F)ccc3n2CC(=O)O)C1` [Example 7, (S)-2-(8-((5-chloropyrimidin-2-yl)(methyl)amino)-2-fluoro-6,7,8,9-tetrahydro-5H-pyrido[3,2-b]indol-5-yl)acetic acid] has an IC50 (hCRTH2 receptor [2]) of 5 nM, an IC50 [3] of 3.1 nM and an IC50 (hCRTH2 receptor [4]) of 5.6 nM.
In the case of `Cc1ccc2c(n1)c1c(n2CC(=O)O)CCC(N(C)c2ncc(Cl)cn2)C1` (stereo not drawn) [drawing 27], the “NoEC (no effect concentration)” value [1] is reported as greater than 300 µM and the “LCC (lowest cytotoxic concentration)” value [1] is reported as greater than 300 µM.
In the case of `CN(c1ncc(Cl)cn1)C1CCc2c(c3nc(F)ccc3n2CC(=O)O)C1` (stereo not drawn) [drawing 28], the “NoEC (no effect concentration)” value [1] is reported as greater than 300 µM and the “LCC (lowest cytotoxic concentration)” value [1] is reported as greater than 300 µM.
For `COc1ccc2c(n1)c1c(n2CC(=O)O)CCC(N(C)c2ncc(Cl)cn2)C1` (stereo not drawn) [drawing 29], the “NoEC (no effect concentration)” value [1] was 100 µM and the “LCC (lowest cytotoxic concentration)” value [1] was 300 s.
`CN(c1ncc(Cl)cn1)C1CCc2c(c3nc(C(F)(F)F)ccc3n2CC(=O)O)C1` (stereo not drawn) [drawing 30] was tested, and the “NoEC (no effect concentration)” value [1] was 100 µM and the “LCC (lowest cytotoxic concentration)” value [1] was 300 s.
With `CN(c1ncc(Cl)cn1)[C@H]1CCc2c(c3ncccc3n2CC(=O)O)C1` [drawing 31] the “NoEC (no effect concentration)” value [1] was greater than 300 µM and the “LCC (lowest cytotoxic concentration)” value [1] was greater than 300 µM.
For `CN(c1ncc(Cl)cn1)[C@H]1CCc2c(c3ncccc3n2CC(=O)O)C1` [drawing 32], the “NoEC (no effect concentration)” value [1] was 30 µM and the “LCC (lowest cytotoxic concentration)” value [1] was 300 µM.
For `CN(c1ncc(Cl)cn1)[C@H]1CCc2c(c3nc(F)ccc3n2CC(=O)O)C1` [drawing 33], the “NoEC (no effect concentration)” value [1] was greater than 300 µM and the “LCC (lowest cytotoxic concentration)” value [1] was greater than 300 µM.
`O=C(O)Cn1c2c(c3nc(F)ccc31)C[C@@H](Nc1ncc(Cl)cn1)CC2` [drawing 35] was tested, and the “NoEC (no effect concentration)” value [1] was greater than 300 µM and the “LCC (lowest cytotoxic concentration)” value [1] was greater than 300 µM.
